# From patent US20240368106A1, “HYDROXY AND ALKOXY COUMARINS AS MODULATORS OF POLRMT” (Pretzel Therapeutics, Inc., priority 2021, published 2024)
# pIC50: −log10 of the molar value.
# Biological target: POLRMT (Homo sapiens (Human), UniProt O00411)
# Experiment: homogeneous TR-FRET assay of mitochondrial transcription (inhibition of POLRMT)
# Format: biochemical
# Conditions: 7.5 nM POLRMT, 15 nM TFB2M, 30 nM TFAM, 0.5 nM DNA template, 500 μM NTPs, 37° C., 60 minutes
# Summary of the method: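 Human POLRMT (7.5 nM) with TFB2M (15 nM), TFAM (30 nM), 0.5 nM linearized LSP plasmid template and 500 μM NTPs in pH 7.5 Tris/MgCl2 buffer, 60 min at 37 °C. Stopped with EDTA/high-salt; 407 bp transcript detected by hybridized Europium/ATTO647N probes. 665/620 nm ratio gives activity.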
# Sequence of POLRMT (O00411 42-1230): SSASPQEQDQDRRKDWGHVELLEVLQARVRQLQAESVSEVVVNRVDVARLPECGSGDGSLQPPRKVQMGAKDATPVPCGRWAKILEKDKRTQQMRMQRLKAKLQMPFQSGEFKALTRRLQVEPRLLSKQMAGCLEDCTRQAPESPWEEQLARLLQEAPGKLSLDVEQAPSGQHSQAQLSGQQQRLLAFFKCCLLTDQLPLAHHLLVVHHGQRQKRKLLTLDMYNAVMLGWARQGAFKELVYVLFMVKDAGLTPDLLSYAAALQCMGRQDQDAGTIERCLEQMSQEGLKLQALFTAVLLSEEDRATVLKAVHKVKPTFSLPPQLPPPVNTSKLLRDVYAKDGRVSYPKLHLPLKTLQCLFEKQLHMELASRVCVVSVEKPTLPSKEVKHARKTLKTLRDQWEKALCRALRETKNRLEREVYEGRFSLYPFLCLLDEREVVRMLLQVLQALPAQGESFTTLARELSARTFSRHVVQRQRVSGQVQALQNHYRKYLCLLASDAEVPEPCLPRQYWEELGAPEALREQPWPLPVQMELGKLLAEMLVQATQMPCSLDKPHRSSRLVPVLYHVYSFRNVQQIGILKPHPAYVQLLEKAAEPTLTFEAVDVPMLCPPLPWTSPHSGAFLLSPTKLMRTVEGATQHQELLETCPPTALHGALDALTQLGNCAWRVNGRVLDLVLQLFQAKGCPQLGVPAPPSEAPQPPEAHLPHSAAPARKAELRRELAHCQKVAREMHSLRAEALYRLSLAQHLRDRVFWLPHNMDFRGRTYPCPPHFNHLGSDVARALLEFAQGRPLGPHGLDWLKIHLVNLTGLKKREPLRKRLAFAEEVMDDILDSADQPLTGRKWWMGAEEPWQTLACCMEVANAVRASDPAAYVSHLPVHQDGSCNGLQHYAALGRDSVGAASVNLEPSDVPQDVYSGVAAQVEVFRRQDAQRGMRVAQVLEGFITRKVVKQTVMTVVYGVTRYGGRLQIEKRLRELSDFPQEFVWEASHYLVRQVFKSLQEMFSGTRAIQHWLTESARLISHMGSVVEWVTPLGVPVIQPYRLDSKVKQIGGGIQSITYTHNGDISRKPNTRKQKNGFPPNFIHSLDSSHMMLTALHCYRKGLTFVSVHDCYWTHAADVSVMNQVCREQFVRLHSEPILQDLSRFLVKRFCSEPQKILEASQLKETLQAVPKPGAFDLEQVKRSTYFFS
row,SMILES,pIC50
1,"COc1ccc2c(-c3ccc(F)cc3Cl)cc(=O)oc2c1 [Example 21, 4-(2-chloro-4-fluorophenyl)-7-methoxy-2H-chromen-2-one]",5.40
2,"CCCOc1ccc2c(-c3ccc(F)cc3Cl)cc(=O)oc2c1 [Example 31, 4-(2-chloro-4-fluorophenyl)-7-propoxy-2H-chromen-2-one]",6.70
3,"Cc1ccccc1-c1cc(=O)oc2cc(O[C@H](C)C(=O)N3CCS(=O)(=O)CC3)ccc12 [Example 111, (R)-7-((1-(1,1-dioxidothiomorpholino)-1-oxopropan-2-yl)oxy)-4-(o-tolyl)-2H-chromen-2-one]",6.70
4,"CCNC(=O)C(COC)Oc1ccc2c(-c3ccccc3C)cc(=O)oc2c1 (single isomer, unassigned) [Example 81, N-ethyl-3-methoxy-2-((2-oxo-4-(o-tolyl)-2H-chromen-7-yl)oxy)propanamide]",6.70
5,"Cc1ccccc1-c1cc(=O)oc2cc(O[C@@H](CO)C(=O)O)ccc12 [Example 103, (S)-3-hydroxy-2-((2-oxo-4-(o-tolyl)-2H-chromen-7-yl)oxy)propanoic acid]",4.80
6,"Cc1ccccc1-c1cc(=O)oc2cc(OC(COC(F)(F)F)C(=O)O)ccc12 (stereo not shown) [Example 106, 2-((2-oxo-4-(o-tolyl)-2H-chromen-7-yl)oxy)-3-(trifluoromethoxy)propanoic acid]",7.52
7,CCOCC(Oc1ccc2c(-c3ccccc3C)cc(=O)oc2c1)C(N)=O (stereo not shown) [Example 99],5.40
